Test results: patent US6916844B2, “Hydroxy pyranone derivative and preparation method thereof” (Amorepacific Corporation, priority 2002, dated 2005)

How the values were obtained:
Human fibroblasts [1] = test: Effect on biosynthesis of collagen (procollagen type (I) ELISA); type: cell-based; conditions: 10^-4 M, 24 hours, relative to untreated control group = 100
Description: The effect of the hydroxy pyranone derivatives obtained in Examples 1˜6 on biosynthesis of collagen was compared with those of retinol and retinoic acid.
Human fibroblasts were seeded into a 24-well plate to a density of 10^5 cells/well and then cultured to 90% of growth. The plate was washed with PBS (phosphate buffered saline) and treated with test samples at a concentration of 10^−4M, and then incubated in a CO2 incubator for 24 hours. From its supernatant, procollagen production was measured with procollagen type (I) ELISA kit. The biosynthesis of collagen was evaluated as a relative value compared with that of the control group, which is not treated with sample and of which the value of biosyntheis of collagen was set to be 100.

Human fibroblasts [2] = test: Collagenase-inhibiting effect (collagenase expression, ELISA kit); type: cell-based; conditions: 10^-4 M, 24 hours, relative to untreated control group = 100
Description: The collagenase-inhibiting effect of hydroxy pyranone derivatives obtained in Examples 1˜6 was compared with those of retinol and retinoic acid.
Human fibroblasts were cultured in Dulbecco's Modified Eagle's Medium (DMEM) supplemented with 2.5% fetal bovine serum. The fibroblasts were seeded into a 96-well microtiter plate to a density of 5,000 cells/well, and then cultured to 70˜80% of growth. The plate was treated with test samples at a concentration of 10^−4M for 24 hours, then the cultured medium and the cells were raked up and recovered. From the recovered culture, collagenase production was measured with collagenase kit (Catalog #: RPN 2610) commercialized by Amersham Pharmacia Biotech. First, the recovered culture was added into a 96-well plate wherein primary collagenase antibodies were uniformly spread, and then antigen-antibody reaction was performed in an incubator for 3 hours. Later, secondary collagenase antibodies bonded with chromophore were added to the 96-well plate and reacted for 15 minutes. Then, color former was added thereto in order to induce development at the room temperature for 15 minutes, and 1M of sulfuric acid was added to stop the reaction. The reaction solution became yellow, and the color density depends on the progress of the reaction. The absorbance of the yellow 96-well plate was measured at 405 nm with absorptiometer. The expression of collagenase was calculated by the following equation 1. No sample was treated in the control group.
[Equation 1] The expression of collagenase (%)=[(Absorbance of test group)/(Absorbance of control group)]×100
The expression of collagenase was evaluated as a relative value compared with that of the control group of which the expression of collagenase was set to be 100.

rabbits = test: Primary skin irritation test on animals (Draize P.I.I.); type: in vivo; conditions: 1% in 1,3-butylene glycol:ethanol=7:3, 0.5 ml, observed 24 and 72 hours later
Description: This test was performed for six (6) healthy male rabbits whose hairs on both sides of the backs were cut. The compounds of Examples 1˜6 were dissolved in 1,3-butylene glycol:ethanol=7:3, to obtain 1% concentration of test samples. 0.5 ml of each test samples were applied to right side area of 2.5 cm×2.5 cm. No sample was treated on left side as a control. 24 hours and 72 hours later, skin abnormality such as erythema, crust and edema was observed. Based on the score of skin response, skin irritation was estimated according to Draize's P.I.I. (Primary Irritation Index) and compared with that of retinoic acid.

white guinea pigs = test: Phototoxicity test; type: in vivo; conditions: 1% (w/v) solution, UVA 15 J/cm^2, observed at 24, 48 and 72 hours
Description: This test was performed for ten (10) white guinea pigs whose hairs on both sides of the backs were cut, and fixed. On the back of the guinea pig, six (6) test sites measuring 2.5 cm×2.5 cm, three (3) per each side, were sectioned. Right sites were prepared as controls with no irradiation (UV non-irradiation sites) and left sites were irradiated (UV irradiation sites). Vehicle (1,3-butylene glycol:ethanol=7:3) was used as a negative control, and 0.1% concentration of 8-MOP (methoxypsoralene) was used as a positive control; and 1% (w/v) solutions of the compounds of Examples 1˜6 were applied to either site with an amount of […] for each site. 30 minutes later, right sites were shielded with aluminum foil and UVA(320˜380 nm) was irradiated at a distance of about 10 cm therefrom with Waldmann to the final energy of 15 J/cm^2. After 24, 48 and 72 hours elapsed, skin response of guinea pig was observed. Erythema and edema were scored from 0 to 4 points as shown in the Table 3, and skin response was evaluated by summing the scores. Maximum scores were selected when measured on each elapsed time, i.e. 24, 48 and 72 hours, and irritation index was calculated according to the following equation 2. Then, phototoxic index was calculated according to the following equation 3.
[Equation 2] Irritation index=(Maximum of erythema+Maximum of edema)/Number of animals [Equation 3] Phototoxic index=(Irritation index of UV irradiation site)−(Irritation index of UV non-irradiation site)

[3] = test system: healthy females and males; test: Human patch test; type: in vivo; conditions: 1% in patch base
Description: This test was performed for thirty (30) healthy females and males aged on average 24.8 years and having no experience of hypersensitivity, according to method of CTFA Guideline (The Cosmetic, Toiletry and Fragrance Association. Inc. Washington, D.C., 20023, 1991). Each compound of Examples 1˜6 was dissolved in patch base having the composition of Table 6 to be 1% concentration as for test materials, and 20 μl of each test materials was dropped into a Finn chamber respectively, then attached to the forearm of the subject and fixed with a micropore tape. After 24 hours of patching, the patches were removed and the test sites were marked with marking pen. The observations of the test sites were made after 24 and 48 hours from the patching.
The average response of Table 8 was calculated by the following equation 4. [formula]

- Expression of collagenase (%) (Human fibroblasts [2]): 78%
- Number of the subjected showing response, 24 hours later, − (No visible response) ([3]; n = 30, 24 hours later, grade 0): 30
- Number of the subjected showing response, 24 hours later, ± (Mild erythema) ([3]; n = 30, 24 hours later, grade 1): 0
- Number of the subjected showing response, 24 hours later, + (Intense erythema) ([3]; n = 30, 24 hours later, grade 2): 0
- Number of the subjected showing response, 24 hours later, + + (Intense erythema with edema) ([3]; n = 30, 24 hours later, grade 3): 0
- Number of the subjected showing response, 24 hours later, + + + (Intense erythema with edema and vesicle) ([3]; n = 30, 24 hours later, grade 4): 0
- Number of the subjected showing response, 48 hours later, − (No visible response) ([3]; n = 30, 48 hours later, grade 0): 30
- Number of the subjected showing response, 48 hours later, ± (Mild erythema) ([3]; n = 30, 48 hours later, grade 1): 0
- Number of the subjected showing response, 48 hours later, + (Intense erythema) ([3]; n = 30, 48 hours later, grade 2): 0
- Number of the subjected showing response, 48 hours later, + + (Intense erythema with edema) ([3]; n = 30, 48 hours later, grade 3): 0
- Number of the subjected showing response, 48 hours later, + + + (Intense erythema with edema and vesicle) ([3]; n = 30, 48 hours later, grade 4): 0
Substance: ((3E)-4-(2H,3H-benzo [3,4-d] 1,3-dioxolan-5-yl)-2-oxobut-3-enyloxy)-5-hydroxy-4H-pyran-4-one [Compound of Ex. 3]
- Biosynthesis of collagen (%) (Human fibroblasts [1]): 123%
- Evaluation (skin irritation) (rabbits): No irritation
- P. I. I. (Primary Irritation Index) (rabbits): 0.375
- Evaluation (phototoxicity) (white guinea pigs): No phototoxicity
- Phototoxic index (white guinea pigs; below 0.5 = no phototoxicity): 0
- Average Response (n = 30) ([3]; calculated by equation 4, below 1 = no irritation): 0.00
